Source: patent publication US20260125400A1, “TYK2 DEGRADERS AND USES THEREOF” (Kymera Therapeutics, Inc., priority 2023, published 2026)
Like-named read-outs stand apart in the source and are kept apart here.

Target: T1, TYK2 (Homo sapiens, UniProt P29597)
T1 construct: Degradation of TYK2 in cells was quantitatively measured using Meso Scale Discovery (MSD) technology; endogenous in cells; host or cells: OCI-LY10
Assay: TYK2 MSD degradation in OCI-LY10 cells
Assay type: cell-based
Settings: 4 to 24 hours incubation; for DC50: read-out: TYK2 MSD OCI-LY10 Rel-DC50
Outline: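 OCI-LY10 cells were treated with 9-dose 1:3 series (top 1 to 10 μM final) for 4 to 24 hours at 37° C. Lysate TYK2 quantified by MSD sandwich immunoassay; DC50 and Dmax from four-parameter inhibitor vs. response fit.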

[1] = TYK2 degradation in OCI-LY10 cells

T1 sequence (P29597 whole entry): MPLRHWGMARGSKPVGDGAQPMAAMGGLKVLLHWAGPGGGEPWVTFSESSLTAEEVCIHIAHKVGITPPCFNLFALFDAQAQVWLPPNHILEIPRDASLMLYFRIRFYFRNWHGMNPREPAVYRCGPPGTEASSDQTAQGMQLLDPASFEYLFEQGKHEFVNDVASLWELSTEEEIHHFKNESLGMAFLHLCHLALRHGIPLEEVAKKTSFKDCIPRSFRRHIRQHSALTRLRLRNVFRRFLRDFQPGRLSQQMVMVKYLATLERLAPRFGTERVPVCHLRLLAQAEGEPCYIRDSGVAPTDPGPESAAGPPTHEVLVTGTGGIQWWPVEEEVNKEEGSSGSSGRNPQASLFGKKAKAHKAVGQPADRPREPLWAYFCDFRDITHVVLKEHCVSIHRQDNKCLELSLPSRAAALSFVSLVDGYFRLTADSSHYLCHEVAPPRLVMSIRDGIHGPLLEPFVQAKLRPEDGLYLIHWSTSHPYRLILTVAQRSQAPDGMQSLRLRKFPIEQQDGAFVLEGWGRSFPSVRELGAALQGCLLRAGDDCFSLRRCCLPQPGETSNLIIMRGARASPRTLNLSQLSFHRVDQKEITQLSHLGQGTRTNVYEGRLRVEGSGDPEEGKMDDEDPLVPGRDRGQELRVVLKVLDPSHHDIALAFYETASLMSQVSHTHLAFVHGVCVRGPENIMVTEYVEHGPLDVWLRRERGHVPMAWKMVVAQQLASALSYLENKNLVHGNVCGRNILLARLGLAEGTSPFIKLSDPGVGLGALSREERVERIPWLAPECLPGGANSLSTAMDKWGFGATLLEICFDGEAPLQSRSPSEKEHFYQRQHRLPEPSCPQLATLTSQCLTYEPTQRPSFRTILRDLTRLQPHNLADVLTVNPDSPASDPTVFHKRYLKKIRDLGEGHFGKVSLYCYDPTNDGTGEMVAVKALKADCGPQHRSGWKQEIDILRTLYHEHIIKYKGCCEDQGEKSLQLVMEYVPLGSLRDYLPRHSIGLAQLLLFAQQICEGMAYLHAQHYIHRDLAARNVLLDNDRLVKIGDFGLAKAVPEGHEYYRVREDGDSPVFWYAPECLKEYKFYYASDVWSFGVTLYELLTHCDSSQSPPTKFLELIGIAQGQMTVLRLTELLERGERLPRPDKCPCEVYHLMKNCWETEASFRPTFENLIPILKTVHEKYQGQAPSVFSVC

Compound	TYK2 MSD OCI-LY10 Dmax % [1]	DC50 [1] [nM]	TYK2 MSD OCI-LY10 Dmax % (OCI-LY10 cells)	DC50 (OCI-LY10 cells) [nM]
CNc1cc(N2CCc3c(-c4ccc(CN5CCC6(CCN(C(=O)c7cc(C)c(Cl)c(N8CCC(=O)NC8=O)c7)CC6)C(F)(F)C5)cn4)cc(F)cc32)nn2c(C(=O)N[C@@H]3C[C@@H]3F)cnc12 [I-815]	B (B (90 to >75%))	< 10	–	–
CNc1cc(N2CCc3c2ccc(F)c3-c2ccc(CN3CCC4(CCN(C(=O)c5cc(C)c(Cl)c(N6CCC(=O)NC6=O)c5)CC4)C(F)(F)C3)cn2)nn2c(C(=O)N[C@@H]3C[C@@H]3F)cnc12 [I-742]	–	–	C (C (75 to 50%))	10 to 100
CNc1cc(N2CCc3c(CN4CCC(N5CCC6(CCN(C(=O)c7cc(N8CCC(=O)NC8=O)c(Cl)cc7F)CC6)CC5)C(F)(F)C4)cccc32)nn2c(C(=O)N[C@@H]3C[C@@H]3F)cnc12 (stereo partly drawn) [I-841]	A (A (>90%))	< 1	–	–
CNc1cc(N2CCc3c(-c4ccc(CN5CC6(CCN(C(=O)c7ccc(Cl)c(N8CCC(=O)NC8=O)c7)CC6(F)F)C5)cn4)cccc32)nn2c(C(=O)NC3CC3)cnc12 [I-29]	B (B (90 to >75%))	< 10	–	–
CNc1cc(N2CCc3c(-c4ccc(CN5CCC6(CCC(Oc7ccc(Cl)c(N8CCC(=O)NC8=O)c7)CC6)CC5)cn4)cccc32)nn2c(C(=O)N[C@@H]3C[C@@H]3F)cnc12 [I-96]	D (D (<50%))	< 10	–	–
CNc1cc(-c2cn(C3CCN(CC4CCN(C(=O)c5ccc(Cl)c(N6CCC(=O)NC6=O)c5)CC4)CC3)c3ccccc23)nn2c(C(=O)N[C@@H]3C[C@@H]3F)cnc12 [I-789]	–	–	D (D (<50%))	> 100
CNc1cc(N2CCc3c(CN4CCC(N5CCC6(CCN(C(=O)c7cc(F)c(Cl)c(N8CCC(=O)NC8=O)c7)CC6)CC5)C(F)(F)C4)cccc32)nn2c(C(=O)NC3CCC3OC)cnc12 (stereo not drawn) [I-1078]	A (A (>90%))	< 1	–	–
CNc1cc(N2CCc3c(-c4ccc(CN5CCC(N6CCC7(CC6)CN(c6ccc8c(c6)n(C)c(=O)n8C6CCC(=O)NC6=O)C7)C(F)(F)C5)cn4)cccc32)nn2c(C(=O)NC3CC3)cnc12 (stereo not drawn) [I-47]	B (B (90 to >75%))	< 10	–	–
CNc1cc(N2CCc3c(-c4ccc(CN5CCC6(CCN(C(=O)c7ccc(Cl)c(N8CCC(=O)NC8=O)c7)CC6)C(F)(F)C5)cn4)cccc32)nn2c(C(=O)N[C@H]3CC[C@@H]3C(F)(F)F)cnc12 [I-1103]	D (D (<50%))	10 to 100	–	–
CNc1cc(N2CCc3c(CN4CCC5(CCN(C6CCN(C(=O)c7ccc(Cl)c(N8CCC(=O)NC8=O)c7)CC6)CC5)C(F)(F)C4)cccc32)nn2c(C(=O)N[C@@H]3C[C@@H]3F)cnc12 [I-836]	B (B (90 to >75%))	< 10	–	–
CNc1cc(N2CCc3c(-c4cnc(CN5CC6(CCN(C(=O)c7ccc(Cl)c(N8CCC(=O)NC8=O)c7)CC6)C5)cn4)cccc32)nn2c(C(=O)N[C@@H]3C[C@@H]3F)cnc12 [I-466]	–	–	A (A (>90%))	< 1
COC1(c2cc(C)cc(-c3cn(C4CCN(CC5CCN(C(=O)c6ccc(Cl)c(N7CCC(=O)NC7=O)c6)CC5)CC4)c4cnc(NC(C)=O)cc34)n2)CCOC1 (stereo not drawn) [I-858]	D (D (<50%))	> 100	–	–
CNc1cc(N2CCc3c(-c4ncc(CN5CC6(CCN(C(=O)c7ccc(Cl)c(N8CCC(=O)NC8=O)c7)CC6(F)F)C5)cc4F)cccc32)nn2c(C(=O)N[C@@H]3C[C@@H]3F)cnc12 [I-1023]	A (A (>90%))	< 1	–	–
CNc1cc(N2CCc3c(-c4ccc(CN5CCC6(CCN(C(=O)c7ccc(Cl)c(N8CCC(=O)NC8=O)c7)C6)C(F)(F)C5)cn4)cccc32)nn2c(C(=O)N[C@@H]3C[C@@H]3F)cnc12 (stereo partly drawn) [I-1082]	B (B (90 to >75%))	< 1	–	–
CNc1cc(N2CCc3c(CC4CCC(N5CCC(N6CCN(C(=O)c7ccc(Cl)c(N8CCC(=O)NC8=O)c7)CC6)C(F)(F)C5)CC4)cccc32)nn2c(C(=O)NC3CC3F)cnc12 (stereo not drawn) [I-708]	–	–	D (D (<50%))	< 1
CNc1cc(N2CCc3c(-c4ccc(CN5CCC(N6CC(N7CCN(c8ccc9c(c8)n(C)c(=O)n9C8CCC(=O)NC8=O)CC7)C6)C(F)(F)C5)cn4)cccc32)nn2c(C(=O)N[C@@H]3C[C@@H]3F)cnc12 (stereo partly drawn) [I-282]	B (B (90 to >75%))	< 1	–	–
CNc1cc(N2CCc3c(-c4ccc(CN5CC6(CCN(C(=O)c7cc(C)c(Cl)c(N8CCC(=O)NC8=O)c7)CC6(F)F)C5)cn4)cccc32)nn2c(C(=O)NCc3ncco3)cnc12 [I-1077]	B (B (90 to >75%))	< 1	–	–
CNc1cc(-c2cn(C3CCN(C4CCN(C(=O)c5ccc(Cl)c(N6CCC(=O)NC6=O)c5)CC4)CC3)c3ccccc23)nn2c(C(=O)N[C@@H]3C[C@@H]3F)cnc12 [I-767]	–	–	D (D (<50%))	> 100

Compound	TYK2 MSD OCI-LY10 Dmax % [1]	DC50 [1] [nM]	TYK2 MSD OCI-LY10 Dmax % (OCI-LY10 cells)	DC50 (OCI-LY10 cells) [nM]
CNc1cc(N2CCc3c(-c4ccc(OC5CC6(CCN(C(=O)c7ccc(Cl)c(N8CCC(=O)NC8=O)c7)CC6)C5)cn4)cccc32)nn2c(C(=O)N[C@@H]3C[C@@H]3F)cnc12 [I-76]	B (B (90 to >75%))	< 1	–	–
CNc1cc(N2CCc3c(-c4cc(C)c(CN5CC6(CCN(C(=O)c7cc(C)c(Cl)c(N8CCC(=O)NC8=O)c7)CC6(F)F)C5)cn4)cccc32)nn2c(C(=O)N[C@@H]3C[C@@H]3F)cnc12 [I-958]	A (A (>90%))	< 1	–	–
CNc1cc(N2CCc3c(-c4ccc(CN5CC(F)(F)C6(CCN(C(=O)c7ccc(Cl)c(N8CCC(=O)NC8=O)c7)CC6)C5)cn4)cccc32)nn2c(C(=O)N[C@@H]3C[C@@H]3F)cnc12 [I-849]	B (B (90 to >75%))	< 10	–	–
CNc1cc(N2CCc3c(-c4ncc(CN5CC6(CCN(C(=O)c7cc(N8CCC(=O)NC8=O)c(C)cn7)CC6(F)F)C5)cc4F)cccc32)nn2c(C(=O)N[C@@H]3C[C@@H]3F)cnc12 [I-1012]	A (A (>90%))	< 1	–	–
CNc1cc(N2CCc3c(CN4CCC(N5CCC6(CCN(C(=O)c7ccc(Cl)c(N8CCC(=O)NC8=O)c7)CC6)CC5)CC4)cccc32)nn2c(C(=O)N[C@@H]3C[C@@H]3F)cnc12 [I-802]	B (B (90 to >75%))	< 10	–	–
CNc1cc(N2CCc3c(-c4ncc(CN5CC6(CCN(C(=O)c7ccc(C)c(N8CCC(=O)NC8=O)c7)CC6(F)F)C5)cc4F)cccc32)nn2c(C(=O)N[C@@H]3C[C@@H]3F)cnc12 [I-1018]	A (A (>90%))	< 1	–	–
CNc1cc(N2CCc3c(-c4ncc(CN5CC6(CCN(C(=O)c7cc(C)c(Cl)c(N8CCC(=O)NC8=O)c7)CC6(F)F)C5)cc4C)cccc32)nn2c(C(=O)N[C@@H]3C[C@@H]3F)cnc12 [I-756]	–	–	B (B (90 to >75%))	< 10
CNc1cc(N2CCc3c(CN4CC[C@@H](N5CCC6(CCN(C(=O)c7cc(Cl)c(Cl)c(N8CCC(=O)NC8=O)c7)CC6)CC5)C(F)(F)C4)cccc32)nn2c(C(=O)N[C@@H]3CC[C@H]3OC)cnc12 [I-1145]	A (A (>90%))	< 1	–	–
CNc1cc(N2CCc3c(CN4CCC(N5CC(N6CCN(c7cccc8c(N9CCC(=O)NC9=O)nn(C)c78)CC6)C5)C(F)(F)C4)cccc32)nn2c(C(=O)N[C@@H]3C[C@@H]3F)cnc12 (stereo partly drawn) [I-903]	B (B (90 to >75%))	< 10	–	–
CNc1cc(N2CCc3c(-c4ccc(CN5CCN(C6CCN(C(=O)c7cc(C)c(Cl)c(N8CCC(=O)NC8=O)c7)CC6(F)F)CC5)cn4)cccc32)nn2c(C(=O)N[C@@H]3CC[C@H]3OC)cnc12 (stereo partly drawn) [I-1161]	B (B (90 to >75%))	< 1	–	–
CNc1cc(N2CCc3c(-c4ncc(C(=O)N5CC6(CCN(C(=O)c7cc(C)c(Cl)c(N8CCC(=O)NC8=O)c7)CC6(F)F)C5)cc4F)cccc32)nn2c(C(=O)N[C@@H]3CC[C@H]3OC)cnc12 [I-1139]	A (A (>90%))	< 1	–	–
CNc1cc(N2CCc3c(CN4CCC(N5CCC(N6CCN(C(=O)c7ccc(Cl)c(N8CCC(=O)NC8=O)c7)CC6)C5)C(F)(F)C4)cccc32)nn2c(C(=O)N[C@@H]3C[C@@H]3F)cnc12 (stereo partly drawn) [I-803]	A (A (>90%))	< 1	–	–
CNc1cc(N2CCc3c(CN4CCC(N5CCC(C6CCN(C(=O)c7ccc(Cl)c(N8CCC(=O)NC8=O)c7)CC6)CC5)C(F)(F)C4)cccc32)nn2c(C(=O)N[C@@H]3CC[C@H]3OC)cnc12 (stereo partly drawn) [I-1069]	A (A (>90%))	< 1	–	–
CNc1cc(N2CCc3c(CN4CCC(N5CCC(C6CCN(c7ccc8c(c7)n(C)c(=O)n8C7CCC(=O)NC7=O)CC6)CC5)C(F)(F)C4)cccc32)nn2c(C(=O)N[C@H]3C[C@H]3F)cnc12 (stereo partly drawn) [I-84]	C (C (75 to 50%))	< 10	–	–
CNc1cc(N2CCc3c(-c4ccc(CN5CCC6(CCN(C(=O)c7cc(F)c(Cl)c(N8CCC(=O)NC8=O)c7)CC6)C(F)(F)C5)cn4)cc(F)cc32)nn2c(C(=O)N[C@@H]3CC[C@H]3OC)cnc12 [I-744]	–	–	B (B (90 to >75%))	< 10
CNc1cc(N2CCc3c(-c4cc(CN5CCN(c6ccc7c(c6F)n(C)c(=O)n7C6CCC(=O)NC6=O)CC5)ccn4)cccc32)nn2c(C(N)=O)cnc12 (stereo not drawn) [I-81]	B (B (90 to >75%))	< 1	–	–
CNc1cc(N2CCc3c(-c4ccc(CN5CCN(Cc6ccc(C7CCC(=O)NC7=O)c(Cl)c6)CC5)cn4)cccc32)nn2c(C(=O)N[C@@H]3C[C@@H]3F)cnc12 (stereo partly drawn) [I-374]	D (D (<50%))	< 10	–	–
CNc1cc(N2CCc3c(N4CC(CN5CCC(N6CCN(c7ccc8c(c7)n(C)c(=O)n8C7CCC(=O)NC7=O)CC6)C(F)(F)C5)C4)cccc32)nn2c(C(=O)NC3CC3)cnc12 (stereo not drawn) [I-12]	C (C (75 to 50%))	< 1	–	–
